According to patent US12678454B2, “Bicarbonate as a potentiator for antimicrobial agents” (priority 2017, dated 2026):
Where two headings read alike, the source gives them in different places. Bridge positions count the residues as written; N and C are the ends. Square brackets hold non-standard residues; d marks the D form. Peptide text beside a SMILES is read from it. * marks the point of attachment. Ileψ(thiazoline)Cys = CC[C@H](C)[C@H](N)C1=N[C@H](C(=O)*)CS1; dOrn = NCCC[C@@H](N)C(=O)O

Assays:
E. coli = assay: Microdilution checkerboard analyses; assay type: cell-based, Escherichia coli
Experimental: (§1) In the following experiments, bacterial cells were cultured in 96-well microtiter plates in cation-adjusted Mueller-Hinton Broth (MHB) for 18 h at 37° C. The main strains used in this study were E. coli (K-12 BW25113) (placed in stationary incubator) and S. aureus (Strain Newman) (incubated at 250 r.p.m). Knockout strains (ΔtolcC and ΔychM) were used from the Keio knockout collection (Baba, T. et al. Construction of Escherichia coli K-12 in-frame, single-gene knockout mutants: the Keio collection. Mol Syst Biol 2, 2006 0008, doi:10.1038/msb4100050 (2006)). For minimum concentration for inhibition (MIC) determination and checkerboard analyses, Clinical & Laboratory Standards Institute (CLSI) protocol was used. […] DiSC3 loading of S. aureus cells was performed as previously described (Farha, M. A., Verschoor, C. P., Bowdish, D. & Brown, E. D. Collapsing the proton motive force to identify synergistic combinations against Staphylococcus aureus. Chemistry & biology 20, 1168-1178, doi:10.1016/j.chembiol.2013.07.006 (2013)). CCCP concentration of 20 μM was used. pH adjustments were made by addition of HCl or NaOH. INT assay and ATP bioluminescence assays were performed as previously described (Farha, M. A., Verschoor, C. P., Bowdish, D. & Brown, E. D. Collapsing the proton motive force to identify synergistic combinations against Staphylococcus aureus. Chemistry & biology 20, 1168-1178, doi:10.1016/j.chembiol.2013.07.006 (2013)). For chemical-genomic studies, the Keio library was grown overnight in cation-adjusted MHB broth, in 384-well plates. From these, treatment plates (25 mM sodium bicarbonate, or a sterile water control) were inoculated and grown for 15 hours at 37° C., in a stationary incubator. Data was normalized according to Mangat et al (Mangat, C. S., Bharat, A., Gehrke, S. S. & Brown, E. D. Rank ordering plate data facilitates data visualization and normalization in high-throughput screening. J Biomol Screen 19, 1314-1320, doi:10.1177/1087057114534298 (2014)), with gene products and GO terms mined from EcoCyc. […]

[1] = for pH of MHB media: prior to pH-adjusting to 7.4
Text: Test media were pH-adjusted upon addition of sodium bicarbonate for all studies reported herein.

E. coli (K-12 BW25113) = assay type: cell-based, Escherichia coli; design: MIC, E. coli, MHB− / MIC, E. coli, MHB+: unit not given here
Experimental: (§2) In the following experiments, bacterial cells were cultured in 96-well microtiter plates in cation-adjusted Mueller-Hinton Broth (MHB) for 18 h at 37° C. The main strains used in this study were E. coli (K-12 BW25113) (placed in stationary incubator) and S. aureus (Strain Newman) (incubated at 250 r.p.m). Knockout strains (ΔtolcC and ΔychM) were used from the Keio knockout collection (Baba, T. et al. Construction of Escherichia coli K-12 in-frame, single-gene knockout mutants: the Keio collection. Mol Syst Biol 2, 2006 0008, doi:10.1038/msb4100050 (2006)). For minimum concentration for inhibition (MIC) determination and checkerboard analyses, Clinical & Laboratory Standards Institute (CLSI) protocol was used. […] DiSC3 loading of S. aureus cells was performed as previously described (Farha, M. A., Verschoor, C. P., Bowdish, D. & Brown, E. D. Collapsing the proton motive force to identify synergistic combinations against Staphylococcus aureus. Chemistry & biology 20, 1168-1178, doi:10.1016/j.chembiol.2013.07.006 (2013)). CCCP concentration of 20 μM was used. pH adjustments were made by addition of HCl or NaOH. INT assay and ATP bioluminescence assays were performed as previously described (Farha, M. A., Verschoor, C. P., Bowdish, D. & Brown, E. D. Collapsing the proton motive force to identify synergistic combinations against Staphylococcus aureus. Chemistry & biology 20, 1168-1178, doi:10.1016/j.chembiol.2013.07.006 (2013)). For chemical-genomic studies, the Keio library was grown overnight in cation-adjusted MHB broth, in 384-well plates. From these, treatment plates (25 mM sodium bicarbonate, or a sterile water control) were inoculated and grown for 15 hours at 37° C., in a stationary incubator. Data was normalized according to Mangat et al (Mangat, C. S., Bharat, A., Gehrke, S. S. & Brown, E. D. Rank ordering plate data facilitates data visualization and normalization in high-throughput screening. J Biomol Screen 19, 1314-1320, doi:10.1177/1087057114534298 (2014)), with gene products and GO terms mined from EcoCyc. The GFP promoter library (Keseler, I. M. et al. EcoCyc: fusing model organism databases with systems biology. Nucleic Acids Res 41, D605-612, doi:10.1093/nar/gks1027 (2013)) was grown for 18 hours at ambient temperature with the same inoculation strategy as with the Keio collection. The analysis pipeline of Zaslaver et al (Zaslaver, A. et al. A comprehensive library of fluorescent transcriptional reporters for Escherichia coli. Nat Methods 3, 623-628, doi:10.1038/nmeth895 (2006)) was used to generate maps of promoter activity, from which lists of promoters with increased or decreased activity were compiled.

Acinetobacter baumannii = assay: MIC determination (CLSI protocol); assay type: cell-based
Experimental: as §1

Klebsiella pneumoniae = assay: MIC determination (CLSI protocol); assay type: cell-based
Experimental: as §1

Pseudomonas aeruginosa = assay: MIC determination (CLSI protocol); assay type: cell-based
Experimental: as §1

[2] = test system: S. aureus (Strain Newman); assay: MIC determination (CLSI protocol) in MHB; assay type: cell-based, Staphylococcus aureus; settings: for MIC, S. aureus, MHB−: MHB without sodium bicarbonate
Experimental: as §2

Enterococcus faecium = test system: Enterococcus faecium
Experimental: In the following experiments, bacterial cells were cultured in 96-well microtiter plates in cation-adjusted Mueller-Hinton Broth (MHB) for 18 h at 37° C. The main strains used in this study were E. coli (K-12 BW25113) (placed in stationary incubator) and S. aureus (Strain Newman) (incubated at 250 r.p.m). Knockout strains (ΔtolcC and ΔychM) were used from the Keio knockout collection (Baba, T. et al. Construction of Escherichia coli K-12 in-frame, single-gene knockout mutants: the Keio collection. Mol Syst Biol 2, 2006 0008, doi:10.1038/msb4100050 (2006)). For minimum concentration for inhibition (MIC) determination and checkerboard analyses, Clinical & Laboratory Standards Institute (CLSI) protocol was used. […] DiSC3 loading of S. aureus cells was performed as previously described (Farha, M. A., Verschoor, C. P., Bowdish, D. & Brown, E. D. Collapsing the proton motive force to identify synergistic combinations against Staphylococcus aureus. Chemistry & biology 20, 1168-1178, doi:10.1016/j.chembiol.2013.07.006 (2013)). CCCP concentration of 20 μM was used. pH adjustments were made by addition of HCl or NaOH. […]

[3] = test system: Klebsiella pneumonia (ATCC 43816); settings: mice
Experimental: Mice were infected with Klebsiella pneumonia (ATCC 43816; inoculum=2.5×10^6 CFU/mL). Following infection, the infected mice were treated with 4 mL nebulized doses of 225 mM sodium bicarbonate using a chamber nebulizer delivery system (Kent Scientific) at 2, 12 and 24 hours post-infection. The mice were sacrificed after 36 hours, and bacterial counts enumerated.

A. baumannii = assay: Murine model of systemic A. baumannii infection; assay type: in vivo; settings: mice
Experimental: Mice were treated two-hours post-infection to allow complete organ occupancy by the injected cells.

[4] = test system: methicillin-resistance Staphylococcus aureus (MRSA) USA-300; assay: Superficial skin infection model, tape-stripped mice; assay type: in vivo; settings: topical 0.5% aqueous solution with or without bicarbonate (50 mM)
Experimental: In this model, an infection is established by disrupting the skin barrier through partial removal of the epidermal layer by stripping with adhesive tape and with subsequent application of the pathogen. Tape-stripped mice infected with 4×10^6 CFU/mL A. baumannii (FIG. 4A) or 4×10^6 CFU/mL methicillin-resistance Staphylococcus aureus (MRSA) USA-300 (FIG. 4B). […] This treatment regime was also conducted for the Vehicle (1.9% Boric Acid, pH 7) as a control (n=4). Tissue samples were collected at 25 hr post-infection (FIG. 4A) and 28 hr post-infection (FIG. 4B). […] (FIG. 5).

[5] = fold enhancement of MIC with 25 mM sodium bicarbonate, negative = suppression

| Molecule | Fold, E. coli (E. coli (K-12 BW25113)) | MIC, E. coli, MHB+ (E. coli (K-12 BW25113)) | Fold, S. aureus [2] | MIC, S. aureus, MHB− [2] | also measured |
| --- | --- | --- | --- | --- | --- |
| O=P([O-])([O-])[O-].[Na+].[Na+].[Na+] [trisodium phosphate] | – | – | – | – | effect on activity of dirithromycin (checkerboard) (E. coli; pH not adjusted (pH ~10)): potentiated the activity of dirithromycin; effect on activity of dirithromycin (checkerboard) (E. coli; pH of the medium adjusted to 7.2): loss of synergy; increase of the pH of the media ([1]; trisodium phosphate added): 3 units |
| O=C([O-])O.[Na+] [Sodium bicarbonate] | – | – | – | – | MIC of sodium bicarbonate (E. coli (K-12 BW25113); Escherichia coli): 100 mM; MIC of sodium bicarbonate (Acinetobacter baumannii): 50 mM; MIC of sodium bicarbonate (Klebsiella pneumoniae): 100 mM; MIC of sodium bicarbonate (Pseudomonas aeruginosa): >100 mM; MIC of sodium bicarbonate ([2]; Staphylococcus aureus): 50 to 100 mM; MIC of sodium bicarbonate (Enterococcus faecium): 50 to 100 mM; effect on activity of pentamidine (checkerboard) (E. coli; E. coli, dose-dependent): greatly potentiated the activity of pentamidine; tolerability of nebulized bicarbonate ([3]; 225 mM nebulized): well tolerated; bacterial counts ([3]; 4 mL nebulized 225 mM sodium bicarbonate at 2, 12, 24 h, counts after 36 hours, inoculum 2.5×10^6 CFU/mL): 4×10^4-4×10^5 CFU/mL; pH of MHB media ([1]; 3.12 mM sodium bicarbonate): 7.42; pH of MHB media ([1]; 25 mM sodium bicarbonate): 7.53; pH of MHB media ([1]; 50 mM sodium bicarbonate): 7.61; pH of MHB media ([1]; 100 mM sodium bicarbonate): 7.71 |
| N=C(N)c1ccc(OCCCCCOc2ccc(C(=N)N)cc2)cc1 [pentamidine] | – | – | – | – | MIC of pentamidine, tissue culture media formulated to mimic the natural environment (E. coli (K-12 BW25113)): 1.5 µg/mL; A. baumannii organ load (spleen), combination (A. baumannii; combination of pentamidine 10 mg/kg and novobiocin IP): total clearance; decrease of A. baumannii organ load (spleen) (A. baumannii; pentamidine alone IP): seven; effect of addition of bicarbonate on efficacy of pentamidine in clearing MRSA infection [4]: increased the antibacterial efficacy; potentiation of antibacterial activity in the presence of bicarbonate, average (Gram-negative organisms): 40 fold; potentiation of antibacterial activity in the presence of bicarbonate, average (Gram-positive organisms): 50 fold |
| CC[C@H](C)[C@H](N)C1=N[C@H](C(=O)N[C@@H](CC(C)C)C(=O)N[C@H](CCC(=O)O)C(=O)N[C@H](C(=O)N[C@H]2CCCCNC(=O)[C@H](CC(N)=O)NC(=O)[C@@H](CC(=O)O)NC(=O)[C@H](Cc3cnc[nH]3)NC(=O)[C@@H](Cc3ccccc3)NC(=O)[C@H]([C@@H](C)CC)NC(=O)[C@@H](CCCN)NC2=O)[C@@H](C)CC)CS1 [Bacitracin] ({Ileψ(thiazoline)Cys}-L[dE]IK[dOrn]I[dF]H[dD]N; lactam 4-C) | 1 fold | >256 | −2 fold | 32 µg/mL | – |
| CCN1CCN(C(=O)N[C@@H](C(=O)N[C@@H]2C(=O)N3[C@@H]2SC(C)(C)[C@@H]3C(=O)O)c2ccccc2)C(=O)C1=O [Piperacillin] | 2 fold | 1 | −4 fold | 0.25 µg/mL | – |
| CN[C@H](CC(C)C)C(=O)N[C@H]1C(=O)N[C@@H](CC(N)=O)C(=O)N[C@H]2C(=O)N[C@H]3C(=O)N[C@H](C(=O)N[C@H](C(=O)O)c4cc(O)cc(O)c4-c4cc3ccc4O)[C@H](O)c3ccc(c(Cl)c3)Oc3cc2cc(c3O[C@@H]2O[C@H](CO)[C@@H](O)[C@H](O)[C@H]2O[C@H]2C[C@](C)(N)[C@H](O)[C@H](C)O2)Oc2ccc(cc2Cl)[C@H]1O [Vancomycin] | – | – | – | 1 µg/mL | Fold, E. coli (E. coli (K-12 BW25113); [5]): 1 fold; Fold, S. aureus [2, 5]: −4 fold |
| O=C(N[C@H](CO)[C@H](O)c1ccc([N+](=O)[O-])cc1)C(Cl)Cl [Chloramphenicol] | 1 fold | 8 | 1 fold | 8 µg/mL | – |
| CCn1cc(C(=O)O)c(=O)c2ccc(C)nc21 [Nalidixic acid] | −4 fold | 8 | −4 fold | > 8 µg/mL | – |
| CC1(C)S[C@@H]2[C@H](NC(=O)[C@H](N)c3ccccc3)C(=O)N2[C@H]1C(=O)O [Ampicillin] | −2 fold | 32 | −8 fold | 1 µg/mL | – |
| Neomycin | 4 fold | 0.25 | 4 fold | – | MIC, E. coli, MHB− (E. coli (K-12 BW25113); MHB without sodium bicarbonate): 1 |
| CCn1cc(C(=O)O)c(=O)c2cc(F)c(N3CCNCC3)nc21 [Enoxacin] | 2 fold | 0.125 | −2 fold | 1 µg/mL | – |
